From US20050267020A1, “Polypeptides derived from inducible hsp70 and pharmaceutical compositions containing the same” (priority 2001, published 2005)

What was measured:
HLA-A*0201 = target: T1, HLA-A*0201 (Homo sapiens, UniProt P04439, D140Y/D185E/D98H/E176V/E277Q/G131W/G231S/I119V/I121R/I166T/I218V/L300P/L318F/N151K/N90K/P208A/P217A/Q86G/Q94H/R138H/R169H/T345S); experiment: Measurement of peptide relative affinity to HLA-A*0201 on T2 cells; format: binding; settings: HLA-A*0201, T2 cells; ratio to reference peptide HIVpol 589; the lower the RA-value, the stronger the binding
T1 construct: Tap−/− cells expressing the studied HLA-class I molecule; endogenous in cells; host or cells: T2 cells (Tap-/-, HLA-A*0201)
Experimental: Measurement of Peptide Relative Affinity to HLA class I. Tap−/− cells expressing the studied HLA-class I molecule (3×10^5 cells/mL) were incubated with various concentrations of peptides ranging from 100 μM to 0.1 μM in serum-free RPMI 1640 medium supplemented with 100 ng/ml of human β-2m at 37° C. for 16 hours. Cells were then washed twice and stained with the specific anti-class I mAb followed by FITC conjugated goat anti mouse Ig mAb to quantify the expression of HLA-A*0201. For each peptide concentration, the HLA-specific staining was calculated as the % of the staining obtained with 100 μM of the reference peptide. The relative affinity (RA) is determined as: RA=(Concentration of each peptide that induces 20% of HLA expression/Concentration of the reference peptide that induces 20% of HLA expression). The lower the RA-value, the stronger is the peptide binding to HLA. The mean RA value for each peptide is determined from at least three independent experiments. […]
(§1) The affinity of each peptide was assayed experimentally by determination of the Relative Affinity: the necessary peptide dose to stabilise a reference quantity of HLA-A*0201 molecules at the surface of T2 cells; and the stability of each peptide was assayed by determination of the half-life of the peptide/HLA-A*0201 molecule complex (DC50: dissociation complex 50).

HHD mice = experiment: Generation of CTL in HLA-A*0201 transgenic HHD mice (immunogenicity); format: in vivo, mouse
Experimental: Generation of CTL in HLA-transgenic mice. HLA-transgenic mice were injected subcutaneously at the base of the tail with 100 μg of peptide emulsified in incomplete Freund's adjuvant (IFA) in the presence of 140 μg of the I-A^b restricted HBVcore-derived T-helper epitope (128-140; sequence TPPAYRPPNAPIL). After 11 days, spleen cells (5×10^7 cells in 10 mL) were stimulated in vitro with peptide (10 μM). On day 6 of culture, the bulk responder populations were tested for specific cytotoxicity. Upon response, the CTL line was then weekly re-stimulated in vitro with 20×10^6 35Gy irradiated spleen cells in the presence of 1 to 0.1 μM peptide and 50 U/mL IL-2 (Proleukin, Chiron Corp.). Cytotoxicity was assayed 6 days after the last stimulation and TNF-α secretion 11-13 days after, with the addition of 50 U/mL IL-2 on day 7. HHD mice transgenic for HLA-A*0201 were used. B7B7 Kd mice and mice transgenic for HLA-A*0301 are used for the study of the HLA-B*0701 and HLA-A*0301 restricted peptides respectively.

[1] = system: COS cells transfected with both Hsp70 and HHD expression vectors; experiment: Peptide processing assay on COS-transfected cells, TNF-α secretion by murine CTL; format: cell-based, simian
From the text: After contact of murine CTL lines with transfected COS cell, CTL recognition of COS cells is expressed as CTL secretion of TNF-α dosed in supernatant (X Axis, TNF-α ranges from 0 to 500 pg/ml). The graphs represent TNF-α dosage by cytotoxic cell lines, respectively mCTL380, mCTL391 mCTL393 and mCTL134, after contact with COS cells. In each graph, upper to lower bars represent the different cells in contact with CTL, respectively: negative control (no COS cell), COS cells, COS cells transfected with Hsp70 expression plasmid, COS cells transfected with HHD expression plasmid, positive control (COS cells transfected with HHD and pulsed with the respective peptide), COS cells transfected with HHD and with Hsp70 expression plasmids.
Peptide Processing Assay on COS-Transfected Cells. 2.2×10^4 simian COS cells were plated in flat-bottom 96 well plates in DMEM 10% FCS, in quadruplicates for each condition. 18 hours later, the medium is discarded, and 100 ng of each DNA plasmid, encoding for Hsp70 and HLA class I molecules, is put in contact with COS cells in DMEM 10% Nuserum […] Chloroquine 10 mg/mL DEAE Dextran. After 4 hours of incubation at 37° C., transfection medium is discarded, and 50 μL PBS 10% DMSO is added for 2 minutes for integration of plasmids. It is then discarded and transfected COS cells are placed in DMEM 10% FCS for 40 hours. Transfected COS cells are then used with 5×10^4 murine CTL in a TNF-α secretion assay.
(§2) TNF-α Secretion Assay. Transfected COS cells on day 4 or 10^5 target tumor cells were plated in 50 μL RPMI 10% FCS and when necessary incubated with 10 μM peptide for 1 hour. In blocking experiments, anti-HLA class I antibody w6/32 or an irrelevant antibody were incubated with target cells for 1 h30. 5×10^4 T cells were then added in 50 μL RPMI 10% FCS and incubated for 6 hours. Each condition was tested in quadruplicates. 50 μL of the supernatant was collected. Standard dilutions were prepared in 50 μL with final doses of TNF-α (kindly provided by I. Apfler, Bender Wien, Austria) ranging from 10^4 to 0.08 pg/mL. On both the supernatants and the standards were added 50 μL of 3×10^4 TNF-α sensitive WEHI-164c13 cells. They were incubated for 16 hours at 37° C. (23). Inhibition of cell proliferation was evaluated by the MTT colorimetric method. Briefly, 50 μL of MTT at 2.5 mg/mL (Sigma-Aldrich) was added and incubated for 4 hours at 37° C. Cells were then lyzed with 100 μL of a pH4.7 33% N,N-dimethyl formamide (Sigma-Aldrich) 20% SDS solution in water. Two hours after cells lysis, OD was measured at 550 nm on a Dynatech MR5000 spectrophotometer. TNF-α quantitation was calculated by linear interpolation with the standard dilutions.

human CD8+ cells = experiment: Generation of CTL from human PBMC with peptide- or polyepitope-pulsed dendritic cells, intracellular IFN-γ staining; format: cell-based; settings: CD8+ cells stimulated with peptide-loaded dendritic cells
Experimental: The three graphs entitled hCTL380, hCTL391 and hCTL393 represent respectively the testing of p380, p391 and p393-specific human CTLs. P391 and p393 specific CTLs were tested towards EBV-B cells, whereas p380 specific CTLs were tested towards T2 cells. The number of IFN-γ producing CD8+ cells for 10^5 CD8+ cells upon activation, indicated on the X-axis, was measured, as assessed by staining cells for CD8 and intracellular IFN-γ.
Polyepitope induced human CTL were tested for their capacity to respond to T2 cells loaded with p380, p391 or p393 or the irrelevant HIVpol589 peptides in intracellular IFN-γ staining. The X axis represents the number of IFNγ-producing CTL/10^5 CD8+ cells. On the Y axis, upper to lower bars represent the results obtained when cells were loaded respectively with irrelevant HIV pol589 peptides, or with p380, p391 or p393 peptides.
Generation of CTL from Human Peripheral Blood Mononuclear Cells (PBMC). Fresh PBMC collected from healthy donnors under informed consent were serologically typed for the studied HLA-class I molecule, and purified using standard Ficoll-Paque (Amersham Pharmacia Biotech AB). Dendritic cells (DC) were prepared by cultivating plastic adherent PBMC in the presence of 500 U/mL GM-CSF (R&D Systems Inc. MN) and 500 U/mL IL-4 (R&D Systems Inc. MN) for 7 days such as described in Keogh et al. (30).
DC were then maturated for 2 days with 2 μg/mL anti-CD40 antibody and 100 ng/mL Poly I:C (Sigma-Aldrich). […] Autologous CD8+ purified T-cells (CD8 MicroBeads, Miltneyi Biotec Inc. CA) were stimulated weekly with DC pulsed for two hours with peptide (10 μM) and irradiated at 35Gy at a T:DC ratio of 10:1 in culture medium (CM; RPMI 1640 supplemented with 10% human AB serum, […] L-glutamine and gentamycin). 1×10^3 U/mL IL-6 and SU/mL IL-12 (R&D Systems Inc. MN) were added during the first week of culture. 20 U/mL clinical grade IL-2 (Proleukin, Chiron Corp.) and 10 ng/mL IL-7 (R&D Systems Inc. MN) were added during the next two weeks of culture. 7 days after the last stimulation with DC, peptide specific IFN-γ secreting CD8+ T cells were magnetically sorted following encounter of the peptide presented by HLA-A*0201+ B-EBV cells (IFN-γ Secretion Assay, Miltenyi Biotec Inc. CA). The characterization of peptide-specific T cells was tested 7 days after the purification step.
Intracellular IFN-g Staining. 5×10^4 T cells were incubated with 10^5 stimulating peptide loaded EBV-B cells or with 10^5 tumor cells in the presence of 20 μg/ml brefeldin-A (Sigma, Oakville, Canada). Six hours later, they were washed, stained with r-phycoerythrin-conjugated anti-CD8 antibody (Caltag Laboratories, Burlingame, Calif.) in PBS for 25 min at 4° C., washed and fixed with 4% PFA. Then, cells were permeabilized with PBS 0.5% BSA 0.2% saponin (Sigma, Oakville, Canada), and stained with allophycocyanin-conjugated anti-IFNg mAb (PharMingen, Mississauga, Canada) for 25 min at 4° C. Cells were analyzed on FACSCalibur (Becton Dickinson, Mountain View, Calif.).

[2] = system: MCF-7 and SAOS tumor cell lines; experiment: Recognition by murine CTL of epitopes at the surface of human tumor cells, TNF-α secretion assay; format: cell-based; settings: HLA-A*0201+ Hsp70+ tumor cells
From the text: CTL recognition of tumoral cells is expressed as CTL secretion of TNF-α dosed in supernatant (X Axis, TNF-α ranges from 0 to 1000 pg/ml) after contact with the cells. Upper to lower bars represent the different cells and reagents in contact with CTL, respectively: 2 negative controls (M113, M44), SAOS, MCF-7, MCF-7 blocked with anti-class I (w6/32) antibody before mixed culture, and MCF-7 blocked with an irrelevant antibody before mixed culture.
as §2
We studied whether the over-expression of Hsp70 described in certain tumor cell lines was high enough to enable these epitopes to be presented at the surface of tumor cells. We addressed this question with our already available high-avidity murine CTLs, hypothesizing that such a high CTL avidity enables the recognition of the highest-Hsp70 expressing human tumor cells. […]

[3] = target: T2, HLA-A*0201/peptide complex (Homo sapiens, UniProt P04439, D140Y/D185E/D98H/E176V/E277Q/G131W/G231S/I119V/I121R/I166T/I218V/L300P/L318F/N151K/N90K/P208A/P217A/Q86G/Q94H/R138H/R169H/T345S); experiment: Assessment of peptide/HLA class I complex stability (DC50); format: binding; settings: half life (DC50) of the HLA-A*0201/peptide complex
T2 construct: Tap−/− cells expressing the studied HLA-class I molecule; endogenous in cells; host or cells: T2 cells (Tap-/-, HLA-A*0201)
Experimental: Assessment of Peptide/HLA class I Complex Stability. Tap−/− cells (10^6/mL) were incubated overnight with 100 μM of each peptide in serum-free RPMI 1640 medium supplemented with 100 ng/mL of […] at 37° C. Cells were then washed four times to remove free peptide, incubated with Brefeldin A (10 μg/mL) for 1 hour to block cell surface expression of newly synthesized HLA molecules, washed and incubated at 37° C. for 0, 2, 4 or 6 hours. Subsequently, cells were stained with the HLA specific mAb followed by FITC conjugated goat anti mouse Ig mAb. For each time point, peptide induced HLA expression was calculated as: Mean fluorescence of peptide preincubated cells—Mean fluorescence of cells treated in similar conditions in the absence of peptide. DC50 (dissociation complex; DC) was defined as the time required for the loss of 50% of the HLA-A*0201/peptide complexes stabilized at t=0.
as §1

## LIGRKFGDPV [HSP 73]
HLA-A*0201
  Relative affinity: >20

## LLDVAPLSL [HSP 393]
HHD mice
  induction of specific cytotoxic T cell immune response in HHD mice: capable of generating a specific cytotoxic T cell immune response
[1]
  processing of the peptide: recognition of Hsp70 + HHD transfected COS cells by the specific murine CTL line: are epitopes
Human CD8+ cells
  induction of specific human CTL: capable of stimulating specific human CTL
[2]
  presentation of the epitope at the surface of Hsp70 over-expressing human tumor cells: epitope correctly presented at the surface of Hsp70 over-expressing tumors

## SLFEGIDFYT [HSP 286]
[3]
  Stability (hrs): >6 h hrs
